Literature values, collected in US7276228B2, “Methods for treating hematological disorders through inhibition of DNA methylation and histone deacetylase” (SuperGen, Inc., priority 2001, dated 2007).
Each block holds one molecule with its values, some of them ahead of it.

Key:
HDAC = settings: for concentration at which HDAC activity is inhibited: literature statements
DNA methyltransferase = settings: decitabine replacing 5-methylcytosine at a site of methylation in DNA; Juttermann et al. (1994)
mammalian HDAC = settings: Yoshida et al. (1990)

Molecule: depudecin
concentration at which HDAC activity is inhibited (HDAC): micromolar concentrations

Molecule: O=C(/C=C/c1cccc(C(=O)NO)c1)NO [CBHA, m-carboxy-cinnamic acid bishydroxamic acid]
concentration at which HDAC is inhibited (HDAC; in vitro or in vivo, Glick et al. (1999)): micromolar concentration or lower

Molecule: C/C=C1\NC(=O)[C@H]2CSSCC/C=C/[C@H](CC(=O)N[C@H](C(C)C)C(=O)N2)OC(=O)[C@H](C(C)C)NC1=O [FR901228]
concentration at which HDAC activity is inhibited (HDAC): micromolar concentrations

inactivation of DNA methyltransferase (DNA methyltransferase): irreversible inactivation
Molecule: Nc1ncn([C@H]2C[C@H](O)[C@@H](CO)O2)c(=O)n1 [decitabine, 5-aza-2′-deoxycytidine]

Molecule: CC(/C=C/C(=O)NO)=C\[C@@H](C)C(=O)c1ccc(N(C)C)cc1 [TSA, trichostatin A]
inhibition of mammalian HDAC (mammalian HDAC): potent inhibitor
